Key:
[1] = Deposition of drug on valve and can of salmeterol xinafoate HFA 134a MDI formulations (HPLC); assay type: physicochemical; details: salmeterol xinafoate 1.50 mg in HFA 134a 3 g, surfactant 0.15 mg (10% w/w relative to drug)
Description: Salmeterol xinafoate formulations in HFA 134a, strength 25 mcg per dose for each of 60 actuations, and 10% w/w (relative to drug) of the relevant surfactant compound of formula (I) (i.e. Example 3 or Example 4) were prepared in aluminum cans with a crimped cap containing a metering valve using salmeterol xinafoate (1.50 mg), HFA 134a (3 g) and the relevant compound (0.15 mg). The control was prepared without the addition of a surfactant.
Cans containing the said formulations for analysis were cooled to […] to liquefy the propellant therein. These were then opened and the contents collected in a vessel. The valve and the empty can were quantitatively washed. The washings for each component were kept separate. The amount of drug in: the contents removed from the can, the valve washings and the can washing was quantified by HPLC analysis.
Therefore, the presence of said surfactants in formulations seems to reduce the deposition of the drug on the can and valve.

[2] = Content uniformity by dose through use testing of salmeterol xinafoate HFA 134a MDI formulations; assay type: physicochemical; details: salmeterol xinafoate 25 mcg per actuation in HFA 134a
Description: Salmeterol xinafoate formulations in HFA 134a, of strength 25 mcg per actuation, and 10% w/w (relative to drug) of the relevant surfactant compound of formula (I) (i.e. Example 3 or Example 4) prepared in aluminum cans with a crimped cap containing a metering valve using salmeterol xinafoate (8.7 mg), HFA 134a (18 g) and the relevant compound (0.87 mg). The control was prepared without the addition of a surfactant. The content uniformity of the formulations was assessed by dose through use testing. Testing was performed on a set of 10 cans/inhalers for each of the formulations, at “beginning of use” (BoU) and “end of use” (EoU). After each inhaler had been primed (4 shots fired to waste), actuations 1 and 2 (BoU) were collected. The next 116 actuations of each inhaler were then fired to waste using an automated method and actuations 119 and 120 (EoU) collected.
In the control there was a rise from beginning to end of use of 5.6 mcg. However, in the presence of the said surfactant compound this rise was reduced to 1.4 mcg for formulations incorporating a compound of Example 3 and 2.8 mcg for formulations incorporating a compound of Example 4. There was also a reduction in the percentage RSD at BoU for the formulations incorporating said surfactant compounds, thereby showing improved can to can reproducibility. Furthermore, there was also a reduction in the percentage RSD at EoU for the formulations incorporating Example 4. The presence of the said surfactants therefore improves the content uniformity of the inhaler.

Can Deposition ([1]; aluminum can): 0.25 mg
Valve Deposition ([1]; aluminum can): 0.33 mg
Drug Content In Can ([1]; contents removed from can): 0.56 mg
BoU Dose % RSD ([2]; can to can reproducibility at beginning of use, 10% w/w surfactant, 10 cans): 0.7%
EoU Dose % RSD ([2]; can to can reproducibility at end of use, 10% w/w surfactant, 10 cans): 13.9%
EoU − BoU (rise in dose from beginning to end of use) ([2]; 10% w/w surfactant relative to drug): 1.4 µg
BoU Dose ([2]; 10% w/w surfactant relative to drug, beginning of use, actuations 1 and 2, 10 cans): 15.8 µg
EoU Dose ([2]; 10% w/w surfactant relative to drug, end of use, actuations 119 and 120, 10 cans): 17.2 µg
SMILES: COCCOCCOCCOCCCOCC(OCCCOCCOCCOCCOC)C(=O)O (centres unmarked) [Example 3, 17-(4,7,10,13-Tetraoxatetradec-1-yloxy)-2,5,8,11,15-pentaoxaoctadecan-18-oic acid]

Source: patent US7321059B2, “Compounds for use as surfactants” (Glaxo Group Limited, priority 2001, dated 2008)
